Data set [1] has as its system p53 protein expression in HCT116 cells. The data set is described as follows: Western blot of p53 protein in parental HCT116 cells. The data set is classed as cell-based, human. To be noted: FIG. 2A. As to the method:
(§1) Cells were collected and protein concentration was quantified by the Bio-Rad protein assay prior to SDS-PAGE. Proteins were transferred to a PVDF membrane (Immobilon-P, Millipore Corporation, Bedford, Mass.) by a semi-dry transfer apparatus (Bio-Rad Laboratories, Hercules, Calif.). The membranes with transferred proteins were blotted with 10% W/V non-fat dry milk and then incubated with the primary antibody and subsequently secondary antibodies, which were labelled by horseradish peroxidase, or infrared dyes (IR). Signals were visualized by either ECL (Amersham Pharmacia Biotech, England, UK) and exposed to an X-ray film, or scanned by the Odyssey Infared Imaging System (LI-COR Biosciences, Lincoln, Nebr.). Anti-p53, DO-1, was from Santa Cruz biotechnology, Inc. (Santa Cruz, Calif.), anti-p73 (AB-1) and anti-p21 (AB-1) were obtained from Calbiochem (San Diego, Calif.). Anti-ser20 of p53 Cell were obtained from Signaling Technology (Danvers, Mass.) and anti-DR5 antibody was obtained from Cayman Chemical (Ann Arbor, Mich.).
(§2) The chemical library screening was directed at restoring “p53 responses” in p53-deficient cells. The small molecules identified by the cell-based screening procedure appeared to be able to restore p53 responses in p53-deficient colon tumors and to eliminate viable cells. Their function was further tested on wild-type p53-expressing and p53-knockout HCT116 colon adenocarcinoma cell lines. A number of candidate modulators of signaling by the p53 family appeared to induce expression of p53 target genes such as p21 or DR5(13) either with or without stabilizing p53 protein in HCT116 cells (FIG. 2A).
(A western blot detects proteins with antibodies after separation by electrophoresis.)

In data set [2] the test system is DR5 and p21 in HCT116/p53(+/+) cells. The experiment in a line: Western blot of p53 target genes DR5 and p21 in HCT116/p53(+/+) cells. To be noted: for expression of p53 targets DR5 and p21 proteins: parental HCT116 (p53+/+) cells, FIG. 2A. The data set is classed as cell-based, human. As to the method: (§3) FIGS. 2A-2B show protein levels of p53 target genes p21 and DR5 were induced by selected compounds in HCT/p53(+/+) cells (A) or HCT/p53(−/−) cells (B). In A, doses of compounds (μM) are listed above each lane. Cells treated with compounds were harvested and lysed for SDS-PAGE and immunoblotted with p21 or DR5 antibodies. Ran was used as a protein loading control. Doses of compounds in B were as follows: 2 μM for #15, 12 μM for #1 and #23, 20 μM for #20 and #32, 100 μM for #33, 200 μM for #5, #8, #12, #16, #17, and #22, and 400 μM for #3. The dose for adriamycin was 0.2 μg/ml. Cells were incubated for 16 hours at 37° C. with the various drugs prior to cell harvest;
as §1, §2

The subject of data set [3] is p73 in HCT116/p53(−/−) cells. The experiment in a line: Western blot of p73 protein in HCT116/p53(-/-) cells. The data set is classed as cell-based, human. To be noted: FIG. 3F. As to the method: (§4) FIGS. 3A-3F show: Structures (A) of isolated compounds and summary of their effects on the p53 family and transcriptional targets (B). Cell cycle profiles of HCT/p53(+/+) and HCT/p53(−/−) in response to treatment by selected compounds (C-E). The dose of #17 was 200 μM and for #23 it was 10 μM. F, p73 protein levels were elevated in HCT116/p53(−/−) cells in response to treatment by selected compounds at various concentrations as indicated;
as §1
The questioned whether the p53 family member p73 is involved in the p53-responsive transcriptional activity induced by the compounds identified was then tested. p63, the other p53 family member, was not tested, because the TA form of p63 is rarely expressed in malignant and normal tissues except for germ cells of the ovary and testis.

Data set [4] has as its system DR5 and p21 in HCT116/p53(−/−) cells. The data set is described as follows: Western blot of p53 target genes DR5 and p21 in HCT116/p53(-/-) cells. It counts as cell-based, human. To be noted: for DR5 and p21 expression (p53 target genes): p53-null HCT116 cells, 16 hours, doses per compound in FIG. 2B. As to the method:
as §3, §1
A number of selected compounds was further tested on HCT116/p53^−/− cells to verify the possibility of induction of p53 target gene expression in the absence of p53. […] The importance of this observation is in establishing that it is possible to identify small molecules with the potential to induce p53 target gene expression in p53-deficient cells.

Data set [5] relates to HCT116/p53(−/−) xenografts. The experiment in a line: In vivo anti-tumor assay, HCT116/p53(-/-) xenografts in Balb/c nude mice. To be noted: doses just below the MTD. As to the method: Balb/c nude mice were inoculated subcutaneously with 2 million HCT116/p53(−/−) cells in Matrigel on each flank. 6 mice were used in each group, in each of the two experiments. When the tumor mass reached about 3-5 mm, mice were treated with the compounds alone or following a single dose of TRAIL at 100 μg/mouse in experiment 1. At 7 days after treatment, mice were sacrificed and the tumor masses were weighted. The doses used were 100 mg/kg for #1, 50 mg/kg for #14, and 10 mg/kg for #23;
Balb/c nude mice (Charles River Laboratories, Wilmington, Mass.) were inoculated subcutaneously with 2 million HCT116/p53(−/−) cells in an equal volume of Matrigel. When tumor masses reached about 3-5 mm in diameter, mice were treated with the compounds alone by intraperitoneal injection or following a single intravenous dose of TRAIL at 100 μg/mouse. At 7 days after treatment, mice were sacrificed and the tumor masses were weighed. DLD1/PG13 cells were inoculated subcutaneously with 5 million cells. At 24 hours later mice were treated with selected compounds, and subsequently bioluminescence imaging was carried out after 16 hours as previously described [Wang, W. & El-Deiry, W. S. (2003) Cancer Biol Ther 2, 196-202].
(§5) Compounds #1, #14, #17, and #23 were tested in colon-tumor xenograft-bearing mice in order to evaluate their toxicities and potential anti-tumor effects (FIG. 4). […] The initial doses were chosen below maximal tolerated doses based on the NCI DTP toxicology databases for chemical compound testing in vivo so that mice would survive drug administration and allow subsequent evaluation of anti-tumor effects. p53-null HCT116 xenografts were first tested to document anti-tumor effects in p53-deficient tumors and an experiment to simulate therapy of established tumors was designed. A total of 2×10^6 p53-null HCT116 cells were implanted on opposite flanks subcutaneously in each of 6 nude mice in each group. When tumor masses grew to about 3-5 mm in diameter, drugs were administered intra-peritoneally (#1: 100 mg/kg; #14: 50 mg/kg; #23: 10 mg/kg), and on the next day additional groups received intravenous TRAIL (15) (100 μg/mice via the tail vein). Tumor weights were determined at 7 days later. […] Nonetheless in the future it may be possible to modify the structure of #17 or identify doses where synergistic interactions with TRAIL may be observed.

Data set [6] has as its system HCT116/p53(−/−)/PG13 cells. The data set is described as follows: p53 transcriptional activity, PG13 reporter, HCT116/p53(-/-)/PG13 cells. It counts as cell-based, human. To be noted: p53-null HCT116, 16 h, bioluminescence. As to the method:
(§6) Cells were treated by the indicated compounds at progressive 1:2 serial dilutions for 16 h, and the luciferase activities were detected by bioluminescence imaging. Fold induction was calculated by comparing to the nontreated cells;

The subject of data set [7] is γH2AX. The data set is described as follows: γH2AX test (DNA damage signaling). It counts as cell-based. To be noted: after treatment.
For data set [8], the system named is HCT116/p53^+/+ cells. The experiment in a line: Flow cytometry cell cycle profile, HCT116/p53(+/+). It counts as cell-based, human. To be noted: #17 200 μM, #23 10 μM. As to the method: as §4
(§7) Adherent cells in a 6-well plate were trypsinized and collected in 15 ml centrifuge tubes to which were added the originally floating cells. The collected cells were ethanol-fixed and stained with propidium iodide (Sigma, St. Louis, Mo.). The DNA content of the stained cells was then measured using an Epics Elite flow cytometer (Beckman-Coulter, Fullerton, Calif.).
(§8) The ability of selected compounds from the chemical library screen to induce apoptosis of human colon tumor cells and the dependence of their effects on endogenous p53 status was further evaluated.

Data set [9] relates to HCT116/p53^−/− cells. The experiment in a line: Flow cytometry cell cycle profile, HCT116/p53(-/-). It counts as cell-based, human. As to the method: as §4, §7, §8
Data set [10] can be described thus: Toxicity in xenograft-bearing mice. The data set is classed as in vivo. To be noted: at higher doses (above MTD). As to the method: as §5
For data set [11], the system named is HCT116/p53(+/+)/PG-13 cells. The experiment in a line: p53 transcriptional activity, PG13 reporter, HCT116/p53(+/+)/PG-13 cells. To be noted: 16 h, bioluminescence. It counts as cell-based, human. As to the method:
as §6

“Also recorded” adds a separate entry of the source.

On to `Cc1ccc(CCCC(=O)O)cc1C` [#3], for which the p53 protein expression result in data set [1] is “slight or no significant effect”. Besides, the “expression of p53 targets DR5 and p21 proteins” value in data set [2] is listed as “increase p53 target gene expression”.
For `O=C(O)/C=C\C(=O)Nc1ccc2c(c1)-c1ccccc1C2` [#5] the same measures were “slight or no significant effect” and “increase p53 target gene expression”.
In the case of `O=C(O)CCC(=O)c1ccc2sc3ccccc3c2c1` [#8], in data set [3], the p73 protein expression entry was “induce p73 protein expression”. The “DR5 and p21 expression (p53 target genes)” value (from here on “DR5 and p21 expression”) in data set [4] was “increase DR5 and p21 expression”.
As to `COC1=C(C)C(=O)c2c(c(COC(N)=O)c3n2CC2C3N2C)C1=O` (stereo not shown) [#11], in [1], the p53 protein expression entry is on record as “increased p53 expression”. Further, the “expression of p53 targets DR5 and p21 proteins” value in data set [2] is “more modest”.
Take `O=C(O)c1ccccc1-c1ccccc1C(=O)Nc1ccc2c(c1)[nH]c(=O)c1ccccc12` [#12]: the p53 protein expression result in data set [1] was “slight or no significant effect”. The p73 protein expression result in [3] is on record as “induce p73 protein expression”. Further, in [2], the “expression of p53 targets DR5 and p21 proteins” value is “increase p53 target gene expression”.
Turning to `Cc1c2ccccc2c(CSC(=N)N)c2ccccc12.Cl` [#15], the p53 protein expression entry in data set [1] is on record as “increased p53 expression; also recorded: significantly increased p53 protein levels”. The “expression of p53 targets DR5 and p21 proteins” value in data set [2] is “more modest”.
In the case of `CC(C)=CCNc1ncnc2c1c(C#N)cn2C1OC(CO)C(O)C1O` (stereo not shown) [#16], in [1], the p53 protein expression entry is given as “slight or no significant effect”. In data set [3], the p73 protein expression result was “induce p73 protein expression”. Moreover, in data set [2], the “expression of p53 targets DR5 and p21 proteins” value is listed as “increase p53 target gene expression”.
Take `CN(C)CCCn1c2ccccc2c2cnccc21` [#17]: the “anti-tumor effect on established xenograft” value in [5] was “no apparent in vivo anti-tumor effect”. The “p53 transcriptional activity (reporter assay response)” value in data set [6] is “highest; also recorded: stronger responses in the reporter assays”. Further, in data set [7], the γH2AX result was “not”. Also, the “sub-G1 peak (apoptosis)” value in data set [8] was “induced a sub-G1 peak characteristic of apoptosis”; in data set [9] (HCT116/p53^−/−, #17 200 μM, #23 10 μM) it was “induced a sub-G1 peak characteristic of apoptosis”. The p53 protein expression result in data set [1] is recorded as “slight or no significant effect; also recorded: modestly induced p53 levels”. Also, the p73 protein expression result in [3] was “did not increase p73 expression”. Besides, the “S-phase population on apoptosis induction” value in [9] (p53-null HCT116 cells, compared with wild-type p53-expressing HCT116) is “without suppressing the S-phase population”. Further, the toxicity to mice result in data set [10] was “toxic to mice”. Moreover, in [2] (HCT116/p53^+/+ cells), the DR5 levels result is “highest”. The “expression of p53 targets DR5 and p21 proteins” value in [2] is recorded as “increase p53 target gene expression”. Besides, the DR5 expression entry in [4] (HCT116/p53^−/− cells) is listed as “highest”. For the same compound, in data set [4], the “DR5 and p21 expression” value was “increasing expression of the p53 target genes DR5 and p21; also recorded: strongly induce p53 target gene expression”. Besides, in [11], the p53 transcriptional activity result was “highest”.
`O=c1[nH]c(SCc2ccccc2[N+](=O)[O-])nc2nc[nH]c12` [#22]: the “DR5 and p21 expression” value in data set [4] is “increase DR5 and p21 expression”.
On the same count and under the same terms, in the case of `C[C@]12CC[C@H](O)C[C@H]1CC[C@@H]1[C@@H]2CC[C@]2(C)[C@@H](C3=CC(=O)OC3)[C@@H](O)C[C@]12O` [#32] it was “increase DR5 and p21 expression”.
For the compound `CC[C@@]1(O)C(=O)OCc2c1cc1n(c2=O)Cc2cc3c(NC(=O)CN)cccc3nc2-1.Cl` [#33], in data set [1], the p53 protein expression result is “increase p53 expression; also recorded: significantly increased p53 protein levels”. Besides, the “expression of p53 targets DR5 and p21 proteins” value in data set [2] was “increased expression of DR5 and p21 proteins”.
Consider `COc1cccc2c1C(=O)c1c(O)c3c(c(O)c1C2=O)C[C@@](O)(C(=O)CO)C[C@@H]3O[C@H]1C[C@H](N)[C@H](O)[C@H](C)O1` [adriamycin, doxorubicin, reference compound], for which the p73 protein expression result in [3] was “only increased p73 slightly”. Also, in data set [4] (HCT116/p53^−/− cells), the DR5 expression result is recorded as “no obvious effect” and the p21 expression entry is reported as “little effect”.
